According to patent US20240279227A1, “FUSED HETEROCYCLIC DERIVATIVES” (Janssen Sciences Ireland Unlimited Company, priority 2021, published 2024):

Columns and labels:
[1] = system: HBV; test: Anti-HBV activity in HepG2.117 cell line (intracellular HBV DNA, real-time PCR); assay type: cell-based, hepatitis B virus; details: HepG2.117 cells, HBV replication induced, 3 days of treatment, intracellular HBV DNA by real-time PCR
Experimental: The anti HBV activity was measured using the HepG2.117 cell line, a stable, inducibly HBV producing cell line, which replicates HBV in the absence of doxycycline (Tet-off system). The HepG2 cell line is available from ATCCR under number HB-8065. Transfection of the HepG2 cell line can be as described in Sun and Nassal 2006 Journal of Hepatology 45 (2006) 636-645 “Stable HepG2-and Huh7-based human hepatoma cell lines for efficient regulated expression of infectious hepatitis B virus”.
For the antiviral assay, HBV replication was induced, followed by a treatment with serially diluted compound in 96-well plates. After 3 days of treatment, the antiviral activity was determined by quantification of intracellular HBV DNA using real-time PCR and an HBV specific primer set and probe.

[2] = Cytotoxicity, ATPlite Luminescence Assay; assay type: cell-based, human; details: human, HepG2 or HepG2.117 cells, 3-days incubation unless marked with *, ATPlite viability
Experimental: Cytotoxicity of the compounds was tested using HepG2 or HepG2.117 cells, incubated for 3 or 4 days in the presence of compounds. The viability of the cells was assessed using the PERKIN ELMER ATPlite Luminescence Assay System.”

[3] = Human liver microsome stability; assay type: in vitro ADME; details: human, pooled human liver microsomes, pH 7.4, pooled human liver microsomes 0.5 mg/mL, 1 μM compound, NADPH 1 mM, pH 7.4, 37° C., 0-60 min; read-out: HLM Metabolism t1/2
Experimental: Pooled human liver microsomes (0.5 mg/mL) was pre-incubated with 1 μM test compounds or control compounds (verapamil, warfarin and cerivastatin) in 0.1 M phosphate buffer pH 7.4 containing 1 mM MgCl2 at 37° C. The final concentration of DMSO and acetonitrile are 0.05% and 0.2%, respectively. All incubations are performed singularly for each compound. NADPH was added to initiate the reaction with the final concentration of 1 mM and the final incubation volume of 400 μL.
At 6 time points (0, 5, 10, 20, 40 and 60 min) reactions were stopped by the removal of 50 μL of the incubation mixture into plates containing acetonitrile at a of 1:3 (v:v). The plates were centrifuged at 3000 rpm for 10 min at 4° C. to precipitate the protein. Following protein precipitation, the sample supernatants were combined in cassettes of up to 8 compounds. The internal standard was added (1:1 supernatant to internal standard solution) and samples were analyzed using standard LC-MS conditions.
From a plot of ln peak area ratio (compound peak area/internal standard peak area) against time, the gradient of the line is determined. Subsequently, half-life is calculated using the equations below: […]

[4] = Hepatitis B virus, HepG2.117, 72 h

| Compound | EC50 [1] [µM] | CC50 [2] [µM] | half-life at 1 μM [3] [h] | EC50 [1, 4] [µM] |
| --- | --- | --- | --- | --- |
| CNC(=O)[C@@H]1CN(C(C)c2ccc(OC)nc2)C(=O)c2c3c(nn21)C[C@@H](C)N(C(=O)c1ccc(Cl)c(Cl)c1)C3 (single isomer, unassigned) [Compound 31A, (3R,7S)-2-(3,4-Dichlorobenzoyl)-9-((R*)-1-(6-methoxypyridin-3-yl)ethyl)-N,3-dimethyl-10-oxo-1,2,3,4,7,8,9,10-octahydropyrido[4′,3′:3,4]pyrazolo[1,5-a]pyrazine-7-carboxamide] | 0.066 | > 50 | > 3 |  |
| CNC(=O)[C@@H]1CN([C@@H](C)c2ccc(S(C)(=O)=O)cc2)C(=O)c2c3c(nn21)C[C@@H](C)N(C(=O)c1ccc(Cl)c(Cl)c1)C3 [Compound 18B, (3R,7S)-2-(3,4-Dichlorobenzoyl)-N,3-dimethyl-9-((S)-1-(4-(methylsulfonyl)phenyl)ethyl)-10-oxo-1,2,3,4,7,8,9,10-octahydropyrido[4′,3′:3,4]pyrazolo[1,5-a]pyrazine-7-carboxamide] |  | > 50 | > 3 | 0.037 |
| CNC(=O)[C@@H]1CN(C(C)c2ccc(C(C)(C)O)nc2)C(=O)c2c3c(nn21)C[C@@H](C)N(C(=O)c1ccc(Cl)c(Cl)c1)C3 (single isomer, unassigned) [Compound 3B, (3R,7S)-2-(3,4-Dichlorobenzoyl)-9-((S*)-1-(6-(2-hydroxypropan-2-yl)pyridin-3-yl)ethyl)-N,3-dimethyl-10-oxo-1,2,3,4,7,8,9,10-octahydropyrido[4′,3′:3,4]pyrazolo[1,5-a]pyrazine-7-carboxamide] |  | > 50 | > 3 | 0.051 |
| CNC(=O)[C@@H]1CN(C(C)c2cc(F)ccn2)C(=O)c2c3c(nn21)C[C@@H](C)N(C(=O)c1ccc(Cl)c(Cl)c1)C3 (single isomer, unassigned) [Compound 42A, (3R,7S)-2-(3,4-Dichlorobenzoyl)-9-((R*)-1-(4-fluoropyridin-2-yl)ethyl)-N,3-dimethyl-10-oxo-1,2,3,4,7,8,9,10-octahydropyrido[4′,3′:3,4]pyrazolo[1,5-a]pyrazine-7-carboxamide] | 0.28 | > 50 | > 3 |  |
| CNC(=O)[C@@H]1CN(C(C)c2ccc(C(C)(C)O)cn2)C(=O)c2c3c(nn21)C[C@@H](C)N(C(=O)c1ccc(Cl)c(Cl)c1)C3 (single isomer, unassigned) [Compound 39A, (3R,7S)-2-(3,4-Dichlorobenzoyl)-9-((R*)-1-(5-(2-hydroxypropan-2-yl)pyridin-2-yl)ethyl)-N,3-dimethyl-10-oxo-1,2,3,4,7,8,9,10-octahydropyrido[4′,3′:3,4]pyrazolo[1,5-a]pyrazine-7-carboxamide] | 1.68 | > 50 | > 3 |  |
| CNC(=O)[C@@H]1CN(C(C)c2ccc(S(=O)(=O)C3CC3)cc2)C(=O)c2c3c(nn21)C[C@@H](C)N(C(=O)c1ccc(Cl)c(C(F)(F)F)c1)C3 (single isomer, unassigned) [Compound 20A, (3R,7S)-2-(4-Chloro-3-(trifluoromethyl)benzoyl)-9-((R*)-1-(4-(cyclopropylsulfonyl)phenyl)ethyl)-N,3-dimethyl-10-oxo-1,2,3,4,7,8,9,10-octahydropyrido[4′,3′:3,4]pyrazolo[1,5-a]pyrazine-7-carboxamide] | 0.089 | > 50 | > 3 |  |
| CNC(=O)[C@@H]1CN(C(C)c2ccc(OC(F)F)c(F)c2)C(=O)c2c3c(nn21)C[C@@H](C)N(C(=O)c1ccc(Cl)c(Cl)c1)C3 (single isomer, unassigned) [Compound 24A, (3R,7S)-2-(3,4-Dichlorobenzoyl)-9-((R*)-1-(4-(difluoromethoxy)-3-fluorophenyl)ethyl)-N,3-dimethyl-10-oxo-1,2,3,4,7,8,9,10-octahydropyrido[4′,3′:3,4]pyrazolo[1,5-a]pyrazine-7-carboxamide] | 0.054 | 20.6 | > 3 |  |
